Patent US20260070922A1, “PYRAZOLE AND IMIDAZOLE DERIVATIVES AS DUAL OREXIN AND KAPPA-OPIOID RECEPTORS MODULATORS COMPOSITION, METHODS FOR TREATING NEUROLOGICAL AND PSYCHIATRIC DISORDERS” (HAGER BIOSCIENCES, LLC, priority 2022, published 2026)

How the values were obtained:
[1] = biological target: T1, Orexin type 1 (OX1R) receptor (Homo sapiens, UniProt O43613); assay: In vitro orexin antagonism assay: intracellular calcium measurement (FLIPR), orexin-A 3 nM as agonist; type: cell-based; conditions: for IC50: first value of IC50/Kb cell; for Kb: second value of IC50/Kb cell; for inhibition at 1 µM: read-out: OX1R, % Inh. @ 1 uM
T1 construct: expressed in transfected cells; host or cells: CHO cells (G418 selection)
T1 sequence (O43613 1-425): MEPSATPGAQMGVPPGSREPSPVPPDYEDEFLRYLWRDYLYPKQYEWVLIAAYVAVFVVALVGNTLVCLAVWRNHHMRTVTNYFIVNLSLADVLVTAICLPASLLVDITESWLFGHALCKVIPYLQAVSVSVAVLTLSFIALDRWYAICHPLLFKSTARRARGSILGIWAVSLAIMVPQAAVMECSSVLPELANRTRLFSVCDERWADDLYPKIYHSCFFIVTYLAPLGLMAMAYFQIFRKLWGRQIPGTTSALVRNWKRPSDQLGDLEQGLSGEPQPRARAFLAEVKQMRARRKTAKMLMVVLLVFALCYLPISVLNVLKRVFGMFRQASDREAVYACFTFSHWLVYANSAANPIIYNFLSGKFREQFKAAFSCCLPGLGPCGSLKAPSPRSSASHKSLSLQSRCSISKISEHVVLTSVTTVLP
Description: (§1) In Vitro Orexin Antagonism Measurement Assay: Intracellular Calcium Measurements:
(§2) Chinese hamster ovary (CHO) cells expressing the human […] and the human orexin-2 receptor, respectively, are grown in culture medium (Ham F-12 with L-Glutamine) containing 300 μg/mL G418, 100 U/mL penicillin, 100 μg/mL streptomycin and 10% heat inactivated fetal calf serum (FCS). The cells are seeded at 20,000 cells/well into 384-well black clear bottom sterile plates (Greiner). The seeded plates are incubated overnight at 37° C. in 5% 002. Human orexin-A as an agonist is prepared as 1 mM stock solution in MeOH: water (1:1), diluted in HBSS containing 0.1% bovine serum albumin (BSA), NaHCO3: 0.375 g/L and 20 mM HEPES for use in the assay at a final concentration of 3 nM.
(§3) Antagonists are prepared as 10 mM stock solution in DMSO, then diluted in 384-well plates using DMSO followed by a transfer of the dilutions into in HBSS containing 0.1% bovine serum albumin (BSA), NaHCO3: 0.375 g/L and 20 mM HEPES. On the day of the assay, 50 μL of staining buffer (HBSS containing 1% FCS, 20 mM HEPES, NaHCO3: 0.375 g/L, 5 mM probenecid (Sigma) and 3 μM of the fluorescent calcium indicator fluo-4 AM (1 mM stock solution in DMSO, containing 10% pluronic) is added to each well. The 384-well cell-plates are incubated for 50 min at 37° C. in 5% CO2 followed by equilibration at RT for 30 min before measurement.
(§4) Within the Fluorescent Imaging Plate Reader (FLIPR Tetra, Molecular Devices), antagonists are added to the plate in a volume of 10 μL/well, incubated for 120 min and finally 10 μL/well of agonist is added. Fluorescence is measured for each well at 1 second intervals, and the height of each fluorescence peak is compared to the height of the fluorescence peak induced by 3 nM orexin-A with vehicle in place of antagonist. The IC50 value (the concentration of compound needed to inhibit 50% of the agonistic response) is determined and may be normalized using the obtained IC50 value of an on-plate reference compound. Optimized conditions were achieved by adjustment of pipetting speed and cell splitting regime. The calculated IC50values may fluctuate depending on the daily cellular assay performance. Fluctuations of this kind are known to those skilled in the art.

[2] = biological target: T2, human orexin-2 receptor (OX2R) (Homo sapiens, UniProt O43614); assay: as above; type: cell-based; conditions: for inhibition at 1 µM: read-out: OX2R, % Inh. @ 1 uM; for IC50: first value of IC50/Kb cell; for Kb: second value of IC50/Kb cell
T2 construct: expressed in transfected cells; host or cells: CHO cells (G418 selection)
T2 sequence (O43614 1-444): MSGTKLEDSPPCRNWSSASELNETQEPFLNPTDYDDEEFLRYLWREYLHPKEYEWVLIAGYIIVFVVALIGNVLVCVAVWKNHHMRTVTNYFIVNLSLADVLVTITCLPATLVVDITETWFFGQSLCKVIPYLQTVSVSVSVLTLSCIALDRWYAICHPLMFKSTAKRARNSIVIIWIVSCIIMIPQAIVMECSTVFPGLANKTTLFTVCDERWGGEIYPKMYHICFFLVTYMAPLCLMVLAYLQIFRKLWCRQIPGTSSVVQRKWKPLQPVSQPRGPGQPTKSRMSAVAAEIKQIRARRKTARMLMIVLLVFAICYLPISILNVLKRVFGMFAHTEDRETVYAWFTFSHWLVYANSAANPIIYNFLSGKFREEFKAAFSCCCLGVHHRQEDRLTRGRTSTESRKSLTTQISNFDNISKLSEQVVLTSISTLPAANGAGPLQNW
Description: Antagonistic activities on both orexin receptors have been measured for each example compound using the following procedure:
as §1, §2, §3
as §4, with “art. In the case where IC50values have been determined several times for the same compound, the geometric mean has been given.” for “art.”

IC50 [1]	Kb [1]	inhibition at 1 µM [1]	inhibition at 1 µM [2]	IC50 [2]	Kb [2]	SMILES
120 nM						O=C(c1c(-c2ccccc2)nn2c1COCC2)N1CCC[C@H]1CNc1ccc(C(F)(F)F)cn1 [Example 2]
140 nM						CCc1cnc(NC[C@@H]2[C@H](C)CCCN2C(=O)c2c(-c3ccccc3)nn3c2COCC3)nc1 [Example 5]
	2 nM					C[C@@H]1CCCN(C(=O)c2c(-c3ccccc3)nn3ccccc23)[C@@H]1CNc1ccc(C(F)(F)F)cn1 [Example 6]
180 nM	38 nM					CCc1cnc(NC[C@@H]2CCCN2C(=O)c2c(-c3ccccc3)nn3ccccc23)nc1 [Example 15]
290 nM						O=C(c1c(-c2ccccc2)nc2ccccn12)N1CCC[C@H]1COc1ccc(C(F)(F)F)cn1 [Example 18]
10 nM	2 nM	82.2%	-3%			C[C@@H]1CCCN(C(=O)c2c(-c3ccccc3)nn3ccccc23)[C@@H]1CNc1ncc(F)cn1 [Example 22]
		23%	13.5%			O=C(c1c(-c2ccccc2)nn2ccccc12)N1CCC[C@H]1CNc1ncc(F)cn1 [Example 23]
17 nM	4 nM	99.8%	72%	74 nM	10 nM	O=C(c1c(-c2ccccc2)nn2ccccc12)N1CCCC[C@H]1CNc1ccc(C(F)(F)F)cn1 [Example 25]
14 nM	3 nM	99.5%	39.4%			O=C(c1c(-c2ccccc2)nc2ccccn12)N1CCCC[C@H]1CNc1ccc(C(F)(F)F)cn1 [Example 26]
9 nM	2 nM	99%	50.4%			O=C(c1c(-c2ccccc2)nn2c1COCC2)N1CCCC[C@H]1CNc1ccc(C(F)(F)F)cn1 [Example 27]
4 nM	1 nM	98.4%	52.5%			O=C(c1nn2ccccc2c1-c1ccccc1)N1CCC[C@H]1COc1ccc(C(F)(F)F)cn1 [Example 28]
5 nM	1 nM	99.5%	84.1%	35 nM	5 nM	O=C(c1nn2ccccc2c1-c1ccccc1)N1CCC[C@H]1CNc1ccc(C(F)(F)F)cn1 [Example 29]
		32.5%	14.8%			O=C(c1c(-c2ccccc2)nn2ccccc12)N1CCC[C@H]1CNc1ccc(F)cn1 [Example 30]
		4.7%	-3.4%			O=C(c1c(-c2ccccc2)nc2ncccn12)N1CCC[C@H]1CNc1ccc(F)cn1 [Example 31]
		19.7%	3.6%			O=C(c1c(-c2ccccc2)nc2ncccn12)N1CCC[C@H]1CNc1ccc(C(F)(F)F)cn1 [Example 32]
		4.8%	0.7%			O=C(c1c(-c2ccccc2)nc2ccccn12)N1CCC[C@H]1CNc1ccc(F)cn1 [Example 33]
		54.8%	23.7%			O=C(c1c(-c2ccccc2)nc2ncccn12)N1CCC[C@H]1Cn1ccc(-c2ccccc2)n1 [Example 35]

IC50 [1]	Kb [1]	inhibition at 1 µM [1]	inhibition at 1 µM [2]	IC50 [2]	Kb [2]	SMILES
		53.7%	14.7%			O=C(c1c(-c2ccccc2)nc2cnccn12)N1CCC[C@H]1CNc1ccc(C(F)(F)F)cn1 [Example 36]
		25.4%	10.4%			O=C(c1c(-c2ccccc2)nn2ccccc12)N1CCC[C@H]1COc1ccc(Br)nc1 [Example 37]
		8.2%	-6.1%			O=C(c1c(-c2ccccc2)nc2ccccn12)N1CCC[C@H]1COc1ccc(Br)nc1 [Example 38]
		39.4%	7.9%			O=C(c1c(-c2ccccc2)nc2cnccn12)N1CCC[C@H]1COc1ccc(C(F)(F)F)nc1 [Example 39]
		45.6%	3.2%			O=C(c1c(-c2ccc(F)cc2)nn2ccccc12)N1CCC[C@H]1CNc1ccc(F)cn1 [Example 41]
12 nM	3 nM	98.2%	39.4%			O=C(c1c(-c2ccc(F)cc2)nn2ccccc12)N1CCC[C@H]1CNc1ccc(C(F)(F)F)cn1 [Example 42]
9 nM	2 nM	93.1%	28.3%			O=C(c1c(-c2ccc(F)cc2)nn2ccccc12)N1CCC[C@H]1COc1ccc(C(F)(F)F)cn1 [Example 43]
4 nM	0.9 nM	98.7%	38.8%			O=C(c1c(-c2ccccc2)nc2ccccn12)N1CCCC[C@H]1COc1ccc(C(F)(F)F)cn1 [Example 45]
		59.5%	1.2%			O=C(c1c(-c2ccccc2)nc2ncccn12)N1CCCC[C@H]1COc1ccc(C(F)(F)F)cn1 [Example 47]
		18.9%	-1.1%			O=C(c1c(-c2ccccc2)nc2ncccn12)N1CCC[C@H]1COc1ccc(C(F)(F)F)cn1 [Example 48]
80 nM	17 nM	88.1%	46.5%			O=C(c1c(-c2ccccc2)nc2ccc(F)cn12)N1CCC[C@H]1COc1ccc(C(F)(F)F)cn1 [Example 51]
327 nM	69 nM	79.2%	43.3%			O=C(c1c(-c2ccccc2)nc2cc(F)ccn12)N1CCC[C@H]1COc1ccc(C(F)(F)F)cn1 [Example 52]
122 nM	26 nM	98%	45.1%			O=C(c1c(-c2ccc(F)cc2)nn2c1COCC2)N1CCC[C@H]1Cn1ccc(-c2ccc(F)cc2)n1 [Example 54]
120 nM	25 nM	60%	35%			O=C(c1c(-c2ccccc2F)nn2c1COCC2)N1CCC[C@H]1Cn1ccc(-c2ccccn2)n1 [Example 70]
		14%	40%			O=C(c1c(-c2ccccc2F)nn2c1COCC2)N1CCC[C@H]1Cn1cc(-c2ccccn2)cn1 [Example 71]
620 nM	13 nM	64%	45%			O=C(c1c(-c2ccccc2F)nn2c1COCC2)N1CCC[C@H]1Cn1cc(-c2ccccc2)cn1 [Example 72]
		40%	45%			O=C(c1c(-c2ccccc2)nc2ccc(F)cn12)N1CCC[C@H]1Cn1cc(-c2ccccn2)cn1 [Example 74]
